Results: the supplement of paper PMC10331698
± gives the standard deviation of the averaged measurements.

What was measured:
Experiment in all cases: level (log10 ratio to DMSO vehicle control); higher = higher biomarker level / cell amount than vehicle control
[1] = compound: O=C(O)C(F)(F)C(F)(F)C(F)(F)OC(F)(F)F [Perfluoro(4-methoxybutanoic) acid] (in DMSO)
Procedure: (§1)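 BioMAP Diversity Plus panel of 12 human primary cell co-culture systems (3C, 4H, LPS, SAg, BT, BF4T, BE3C, CASM3C, HDF3CGF, KF3CT, MyoF, Mphg). Compounds were added 1 h before stimulation and left for 24 h (MyoF 48 h; BT 72 h for soluble read-outs or 6 d for IgG). Biomarkers were read by ELISA, cytotoxicity by SRB, PBMC viability and proliferation by Alamar Blue. Each well value was divided by the mean of 8 DMSO control wells on the same plate and log10 transformed; duplicate blinded samples were tested at 4 concentrations.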

[2] = compound: OCC(F)(F)C(F)(F)C(F)(F)C(F)F [1H,1H,5H-Perfluoropentanol] (in DMSO)
Procedure: as §1

[3] = compound: O=C(O)C(F)(OC(F)(F)C(F)(OC(F)(F)C(F)(OC(F)(F)C(F)(F)C(F)(F)F)C(F)(F)F)C(F)(F)F)C(F)(F)F [Perfluoro-(2,5,8-trimethyl-3,6,9-trioxadodecanoic)acid] (in DMSO)
Procedure: as §1

[4] = compound: CO[Si](C)(CCC(F)(F)C(F)(F)C(F)(F)C(F)(F)C(F)(F)C(F)(F)F)OC [Dimethoxymethyl((perfluorohexyl)ethyl)silane] (in DMSO)
Procedure: as §1

[5] = compound: C[C@@H]1C[C@H]2[C@@H]3CCC4=CC(=O)C=C[C@]4(C)[C@@]3(F)[C@@H](O)C[C@]2(C)[C@@]1(O)C(=O)COP(=O)(O)O [Dexamethasone sodium phosphate] (in DMSO)
Procedure: as §1

[6] = compound: O=S(=O)(O)C(F)(F)C(F)(F)OC(F)(F)C(F)(F)F [Perfluoro(2-ethoxyethane)sulfonic acid] (in DMSO)
Procedure: as §1

Row | Test System | level (log10) ([1]; 6700 nM) | level (log10) ([1]; 20000 nM) | level (log10) ([1]; 60000 nM) | level (log10) ([2]; 6700 nM) | level (log10) ([2]; 20000 nM) | level (log10) ([2]; 60000 nM) | level (log10) ([3]; 1100 nM) | level (log10) ([3]; 3300 nM) | level (log10) ([3]; 10000 nM) | level (log10) ([4]; 6700 nM) | level (log10) ([4]; 20000 nM) | level (log10) ([5]; 1500 nM) | level (log10) ([5]; 4400 nM) | level (log10) ([5]; 13000 nM) | level (log10) ([5]; 40000 nM) | level (log10) ([6]; 6700 nM) | level (log10) ([6]; 20000 nM) | level (log10) ([6]; 60000 nM)
1 | 4H:CCL2/MCP-1 | -0.0235 ± 0.013 | -0.026 ± 0.0028 | 0.0005 ± 0.061 | -0.0265 ± 0.046 | -0.0115 ± 0.033 | 0.039 ± 0.055 | 0.0005 ± 0.012 | -0.017 ± 0.0099 | 0.0205 ± 0.021 | -0.05 ± 0.033 | 0.011 ± 0.12 | -0.0075 ± 0.018 | 0.005 ± 0.033 | 0.017 ± 0.041 | 0.043 ± 0.025 | -0.019 ± 0.05 | -0.008 ± 0.021 | -0.0015 ± 0.016
2 | SAg:CD69 | 0.027 ± 0.076 | 0.0345 ± 0.066 | 0.045 ± 0.086 | -0.015 ± 0.018 | 0.0185 ± 0.0092 | 0.0045 ± 0.023 | -0.0135 ± 0.005 | -0.015 ± 0.0042 | -0.0095 ± 0.023 | -0.032 ± 0.033 | -0.0115 ± 0.011 | -0.025 ± 0.02 | -0.054 ± 0.02 | -0.0885 ± 0.03 | -0.0865 ± 0.011 | 0.0055 ± 0.032 | 0.0065 ± 0.016 | 0.015 ± 0.021
3 | BF4T:tPA | -0.003 | 0.0005 ± 0.0064 | 0.0105 ± 0.022 | -0.009 ± 0.028 | 0.0335 ± 0.022 | 0.04 ± 0.058 | -0.012 ± 0.02 | -0.012 ± 0.0042 | -0.0035 ± 0.021 | 0.0005 ± 0.023 | -0.015 ± 0.0028 | 0.0375 ± 0.05 | 0.01 ± 0.034 | 0.0145 ± 0.016 | 0.027 ± 0.021 | -0.0095 ± 0.022 | -0.004 ± 0.021 | 0.017 ± 0.05
4 | BT:sIL-6 | 0.042 ± 0.089 | 0.0225 ± 0.071 | -0.061 ± 0.038 | 0.0265 ± 0.005 | 0.0175 ± 0.015 | 0.003 ± 0.014 | -0.0085 ± 0.07 | 0.0025 ± 0.053 | 0.038 ± 0.013 | -0.038 ± 0.076 | 0.0465 ± 0.14 | -0.2605 ± 0.0021 | -0.281 ± 0.07 | -0.3065 ± 0.0021 | -0.33 ± 0.061 | 0.006 ± 0.03 | -0.029 ± 0.0085 | -0.027 ± 0.076
5 | LPS:CD69 | 0.02 ± 0.11 | 0.0405 ± 0.12 | 0.0255 ± 0.086 | -0.02 ± 0.011 | -0.0015 ± 0.013 | 0.0175 ± 0.0078 | -0.021 ± 0.0014 | -0.0255 ± 0.0078 | -0.007 | -0.046 ± 0.013 | -0.0265 ± 0.0092 | 0.016 ± 0.1 | -0.009 ± 0.052 | -0.042 ± 0.038 | -0.0335 ± 0.039 | 0.0305 ± 0.04 | -0.007 ± 0.027 | -0.023 ± 0.068
6 | BE3C:EGFR | 0.016 ± 0.0071 | 0.0035 ± 0.015 | 0.009 ± 0.016 | -0.008 ± 0.0099 | 0.0105 ± 0.011 | 0.032 ± 0.065 | 0.0085 ± 0.0021 | 0.0035 ± 0.0035 | 0.0185 ± 0.0078 | 0.001 ± 0.011 | -0.01 ± 0.017 | 0.008 ± 0.042 | -0.0035 ± 0.013 | -0.011 ± 0.0071 | -0.0145 ± 0.005 | 0 ± 0.0014 | -0.019 ± 0.017 | -0.004
7 | BF4T:uPA | -0.009 ± 0.0085 | -0.012 | 0.0045 ± 0.005 | -0.0215 ± 0.032 | 0.023 ± 0.016 | 0.013 ± 0.02 | 0.008 ± 0.0028 | 0.0015 ± 0.0035 | 0.004 ± 0.0071 | -0.0095 ± 0.00071 | -0.014 ± 0.0085 | 0.006 ± 0.025 | -0.013 ± 0.045 | -0.002 ± 0.013 | -0.002 ± 0.0028 | -0.003 ± 0.011 | -0.0025 ± 0.021 | 0.0235 ± 0.00071
8 | BF4T:MMP-1 | 0.0065 ± 0.029 | 0.0015 ± 0.032 | 0.0095 ± 0.011 | 0.002 ± 0.018 | 0.0095 ± 0.018 | 0.012 ± 0.033 | 0.0005 ± 0.0092 | -0.0045 ± 0.011 | 0.0065 ± 0.018 | -0.01 ± 0.054 | 0.0085 ± 0.023 | 0.006 ± 0.0014 | -0.012 ± 0.013 | -0.0215 ± 0.0092 | -0.0125 ± 0.0021 | -0.002 ± 0.013 | -0.0005 ± 0.00071 | 0.0125 ± 0.0064
